In one assay the target is T1, Histone deacetylase 7 (Homo sapiens, UniProt Q8WUI4).
T1 sequence (Q8WUI4 whole entry): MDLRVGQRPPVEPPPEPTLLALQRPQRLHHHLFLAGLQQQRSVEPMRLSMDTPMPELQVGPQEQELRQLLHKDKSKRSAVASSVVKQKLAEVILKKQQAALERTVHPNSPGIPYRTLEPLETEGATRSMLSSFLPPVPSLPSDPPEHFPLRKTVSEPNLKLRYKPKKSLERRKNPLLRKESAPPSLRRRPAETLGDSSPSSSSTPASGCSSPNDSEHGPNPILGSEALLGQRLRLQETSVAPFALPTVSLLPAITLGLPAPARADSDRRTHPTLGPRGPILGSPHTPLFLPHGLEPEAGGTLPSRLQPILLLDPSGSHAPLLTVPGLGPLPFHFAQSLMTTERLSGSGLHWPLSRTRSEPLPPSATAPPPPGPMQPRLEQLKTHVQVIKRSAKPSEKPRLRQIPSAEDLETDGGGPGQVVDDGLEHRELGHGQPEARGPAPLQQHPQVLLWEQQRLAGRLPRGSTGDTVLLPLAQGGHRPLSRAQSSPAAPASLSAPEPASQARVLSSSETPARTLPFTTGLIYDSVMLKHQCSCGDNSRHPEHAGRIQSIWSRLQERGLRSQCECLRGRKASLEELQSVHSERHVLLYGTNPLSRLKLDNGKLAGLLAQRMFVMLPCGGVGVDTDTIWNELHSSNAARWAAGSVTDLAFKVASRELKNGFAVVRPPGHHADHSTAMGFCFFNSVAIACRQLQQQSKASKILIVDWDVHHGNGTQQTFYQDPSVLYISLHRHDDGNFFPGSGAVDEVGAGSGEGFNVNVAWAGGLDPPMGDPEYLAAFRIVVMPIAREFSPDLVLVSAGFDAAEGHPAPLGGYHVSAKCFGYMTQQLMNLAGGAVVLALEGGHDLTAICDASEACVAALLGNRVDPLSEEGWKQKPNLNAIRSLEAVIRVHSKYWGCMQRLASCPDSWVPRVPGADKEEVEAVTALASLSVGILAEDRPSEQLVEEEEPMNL

Assay [1] deals with T2, Protein deacetylase HDAC6 (Homo sapiens, UniProt Q9UBN7).
T2 sequence (Q9UBN7 whole entry): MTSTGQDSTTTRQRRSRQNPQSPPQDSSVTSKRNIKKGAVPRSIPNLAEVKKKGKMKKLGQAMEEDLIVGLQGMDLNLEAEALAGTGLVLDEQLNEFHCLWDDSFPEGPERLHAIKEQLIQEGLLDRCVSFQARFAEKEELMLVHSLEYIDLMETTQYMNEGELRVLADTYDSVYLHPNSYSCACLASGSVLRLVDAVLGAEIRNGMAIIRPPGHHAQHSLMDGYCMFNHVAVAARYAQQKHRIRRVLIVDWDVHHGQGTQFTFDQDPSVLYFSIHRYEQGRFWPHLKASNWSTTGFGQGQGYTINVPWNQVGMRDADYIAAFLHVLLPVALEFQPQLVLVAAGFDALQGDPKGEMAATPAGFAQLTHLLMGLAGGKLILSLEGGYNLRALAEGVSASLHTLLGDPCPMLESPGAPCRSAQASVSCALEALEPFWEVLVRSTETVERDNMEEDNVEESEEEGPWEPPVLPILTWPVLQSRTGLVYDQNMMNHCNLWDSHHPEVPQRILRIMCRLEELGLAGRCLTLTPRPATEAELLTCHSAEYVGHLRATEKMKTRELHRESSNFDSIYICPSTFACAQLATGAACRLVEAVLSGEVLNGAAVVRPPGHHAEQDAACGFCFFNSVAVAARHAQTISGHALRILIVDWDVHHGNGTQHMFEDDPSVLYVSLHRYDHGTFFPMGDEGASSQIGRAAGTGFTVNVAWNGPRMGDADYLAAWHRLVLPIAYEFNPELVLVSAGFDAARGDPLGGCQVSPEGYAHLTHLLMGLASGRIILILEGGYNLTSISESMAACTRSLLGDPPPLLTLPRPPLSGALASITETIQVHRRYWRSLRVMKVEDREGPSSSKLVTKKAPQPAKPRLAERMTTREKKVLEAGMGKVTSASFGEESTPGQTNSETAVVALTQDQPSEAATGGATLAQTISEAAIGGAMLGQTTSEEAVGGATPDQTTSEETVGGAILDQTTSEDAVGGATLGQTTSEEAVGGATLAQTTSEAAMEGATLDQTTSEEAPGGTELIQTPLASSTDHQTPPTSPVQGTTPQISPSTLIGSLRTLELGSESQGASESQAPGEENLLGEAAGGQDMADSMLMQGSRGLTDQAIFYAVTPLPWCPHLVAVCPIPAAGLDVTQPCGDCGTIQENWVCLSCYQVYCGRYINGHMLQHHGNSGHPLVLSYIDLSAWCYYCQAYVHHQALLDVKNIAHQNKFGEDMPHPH
The assay can be described thus: Inhibition of recombinant human HDAC6 using Boc-L-Lys(epsilon-acetyl)-AMC as substrate by two-step fluorogenic assay.

Assay [2] addresses Histone deacetylase 2/Nuclear receptor corepressor 2 (Homo sapiens, UniProt Q92769). The assay can be described thus: Inhibition of recombinant human HDAC2/NCOR2 using Boc-L-Lys(epsilon-acetyl)-AMC as substrate by two-step fluorogenic assay. The format is protein-complex assay.
The target in a further assay is Histone deacetylase 9 (Homo sapiens, UniProt Q9UKV0).
Chain of Histone deacetylase 9 (Q9UKV0 whole entry): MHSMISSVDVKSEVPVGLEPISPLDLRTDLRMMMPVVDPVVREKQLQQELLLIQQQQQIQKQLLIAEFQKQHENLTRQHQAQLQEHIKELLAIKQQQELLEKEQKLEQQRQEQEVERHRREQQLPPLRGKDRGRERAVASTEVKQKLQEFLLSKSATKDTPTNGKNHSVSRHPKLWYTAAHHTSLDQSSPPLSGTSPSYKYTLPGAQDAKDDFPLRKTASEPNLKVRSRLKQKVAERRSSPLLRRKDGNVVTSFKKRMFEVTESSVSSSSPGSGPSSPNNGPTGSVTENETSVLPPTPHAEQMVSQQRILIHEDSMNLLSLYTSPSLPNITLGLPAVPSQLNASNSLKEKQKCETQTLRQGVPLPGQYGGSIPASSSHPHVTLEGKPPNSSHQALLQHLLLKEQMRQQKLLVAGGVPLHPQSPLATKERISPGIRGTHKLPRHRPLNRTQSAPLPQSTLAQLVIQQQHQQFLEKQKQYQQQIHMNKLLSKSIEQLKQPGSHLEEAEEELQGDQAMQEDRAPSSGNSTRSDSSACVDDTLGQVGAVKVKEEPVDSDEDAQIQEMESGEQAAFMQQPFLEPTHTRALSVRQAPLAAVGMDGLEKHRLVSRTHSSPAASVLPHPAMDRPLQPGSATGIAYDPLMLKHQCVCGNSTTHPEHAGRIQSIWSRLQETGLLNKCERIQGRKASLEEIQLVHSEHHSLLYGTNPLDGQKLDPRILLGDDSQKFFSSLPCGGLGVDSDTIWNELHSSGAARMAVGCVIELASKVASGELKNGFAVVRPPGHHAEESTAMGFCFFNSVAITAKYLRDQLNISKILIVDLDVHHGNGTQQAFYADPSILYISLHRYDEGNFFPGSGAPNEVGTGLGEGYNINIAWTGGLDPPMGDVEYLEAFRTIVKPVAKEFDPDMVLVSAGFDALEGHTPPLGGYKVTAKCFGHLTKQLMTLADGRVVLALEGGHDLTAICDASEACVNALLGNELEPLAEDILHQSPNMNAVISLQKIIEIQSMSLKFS
Assay [3] has as its target Histone deacetylase 3/Nuclear receptor corepressor 2 (HDAC3/NCoR2) (Homo sapiens, UniProt O15379). The format is protein-complex assay.
Another assay concerns the target Histone deacetylase 4 (Homo sapiens, UniProt P56524).
Assay [4] has as its target Histone deacetylase 1/Nuclear receptor corepressor 2 (Homo sapiens, UniProt Q13547). The assay can be described thus: Inhibition of recombinant human HDAC1/NCOR2 using Boc-L-Lys(epsilon-acetyl)-AMC as substrate by two-step fluorogenic assay. It counts as protein-complex assay.
The next assay deals with T3, Histone deacetylase 8 (Homo sapiens, UniProt Q9BY41).
T3 sequence (Q9BY41 whole entry): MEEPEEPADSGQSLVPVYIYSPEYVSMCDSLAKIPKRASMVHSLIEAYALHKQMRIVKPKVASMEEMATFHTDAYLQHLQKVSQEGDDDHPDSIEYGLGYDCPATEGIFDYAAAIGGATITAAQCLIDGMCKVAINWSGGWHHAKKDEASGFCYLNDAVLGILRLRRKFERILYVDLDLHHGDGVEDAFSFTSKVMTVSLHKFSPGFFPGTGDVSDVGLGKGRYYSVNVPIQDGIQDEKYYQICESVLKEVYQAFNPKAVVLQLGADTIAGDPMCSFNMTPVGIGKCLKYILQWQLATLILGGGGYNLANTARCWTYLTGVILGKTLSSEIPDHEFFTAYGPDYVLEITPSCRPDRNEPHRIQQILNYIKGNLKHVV

Chain of Histone deacetylase 1/Nuclear receptor corepressor 2 (Q13547 whole entry): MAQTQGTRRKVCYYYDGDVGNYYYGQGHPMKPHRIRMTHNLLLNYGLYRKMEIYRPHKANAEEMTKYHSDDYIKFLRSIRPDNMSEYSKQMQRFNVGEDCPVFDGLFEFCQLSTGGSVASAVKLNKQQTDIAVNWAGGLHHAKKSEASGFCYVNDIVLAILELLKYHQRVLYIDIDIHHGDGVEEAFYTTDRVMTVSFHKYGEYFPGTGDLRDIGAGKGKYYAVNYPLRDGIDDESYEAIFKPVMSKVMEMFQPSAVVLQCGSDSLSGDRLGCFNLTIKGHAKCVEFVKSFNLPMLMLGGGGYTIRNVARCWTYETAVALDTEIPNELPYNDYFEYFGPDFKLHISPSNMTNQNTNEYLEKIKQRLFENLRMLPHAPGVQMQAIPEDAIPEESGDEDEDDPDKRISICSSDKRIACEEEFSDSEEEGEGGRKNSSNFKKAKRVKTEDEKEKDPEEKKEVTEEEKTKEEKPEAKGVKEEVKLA
Chain of Histone deacetylase 1/Nuclear receptor corepressor 2 (Q9Y618 whole entry, further chain): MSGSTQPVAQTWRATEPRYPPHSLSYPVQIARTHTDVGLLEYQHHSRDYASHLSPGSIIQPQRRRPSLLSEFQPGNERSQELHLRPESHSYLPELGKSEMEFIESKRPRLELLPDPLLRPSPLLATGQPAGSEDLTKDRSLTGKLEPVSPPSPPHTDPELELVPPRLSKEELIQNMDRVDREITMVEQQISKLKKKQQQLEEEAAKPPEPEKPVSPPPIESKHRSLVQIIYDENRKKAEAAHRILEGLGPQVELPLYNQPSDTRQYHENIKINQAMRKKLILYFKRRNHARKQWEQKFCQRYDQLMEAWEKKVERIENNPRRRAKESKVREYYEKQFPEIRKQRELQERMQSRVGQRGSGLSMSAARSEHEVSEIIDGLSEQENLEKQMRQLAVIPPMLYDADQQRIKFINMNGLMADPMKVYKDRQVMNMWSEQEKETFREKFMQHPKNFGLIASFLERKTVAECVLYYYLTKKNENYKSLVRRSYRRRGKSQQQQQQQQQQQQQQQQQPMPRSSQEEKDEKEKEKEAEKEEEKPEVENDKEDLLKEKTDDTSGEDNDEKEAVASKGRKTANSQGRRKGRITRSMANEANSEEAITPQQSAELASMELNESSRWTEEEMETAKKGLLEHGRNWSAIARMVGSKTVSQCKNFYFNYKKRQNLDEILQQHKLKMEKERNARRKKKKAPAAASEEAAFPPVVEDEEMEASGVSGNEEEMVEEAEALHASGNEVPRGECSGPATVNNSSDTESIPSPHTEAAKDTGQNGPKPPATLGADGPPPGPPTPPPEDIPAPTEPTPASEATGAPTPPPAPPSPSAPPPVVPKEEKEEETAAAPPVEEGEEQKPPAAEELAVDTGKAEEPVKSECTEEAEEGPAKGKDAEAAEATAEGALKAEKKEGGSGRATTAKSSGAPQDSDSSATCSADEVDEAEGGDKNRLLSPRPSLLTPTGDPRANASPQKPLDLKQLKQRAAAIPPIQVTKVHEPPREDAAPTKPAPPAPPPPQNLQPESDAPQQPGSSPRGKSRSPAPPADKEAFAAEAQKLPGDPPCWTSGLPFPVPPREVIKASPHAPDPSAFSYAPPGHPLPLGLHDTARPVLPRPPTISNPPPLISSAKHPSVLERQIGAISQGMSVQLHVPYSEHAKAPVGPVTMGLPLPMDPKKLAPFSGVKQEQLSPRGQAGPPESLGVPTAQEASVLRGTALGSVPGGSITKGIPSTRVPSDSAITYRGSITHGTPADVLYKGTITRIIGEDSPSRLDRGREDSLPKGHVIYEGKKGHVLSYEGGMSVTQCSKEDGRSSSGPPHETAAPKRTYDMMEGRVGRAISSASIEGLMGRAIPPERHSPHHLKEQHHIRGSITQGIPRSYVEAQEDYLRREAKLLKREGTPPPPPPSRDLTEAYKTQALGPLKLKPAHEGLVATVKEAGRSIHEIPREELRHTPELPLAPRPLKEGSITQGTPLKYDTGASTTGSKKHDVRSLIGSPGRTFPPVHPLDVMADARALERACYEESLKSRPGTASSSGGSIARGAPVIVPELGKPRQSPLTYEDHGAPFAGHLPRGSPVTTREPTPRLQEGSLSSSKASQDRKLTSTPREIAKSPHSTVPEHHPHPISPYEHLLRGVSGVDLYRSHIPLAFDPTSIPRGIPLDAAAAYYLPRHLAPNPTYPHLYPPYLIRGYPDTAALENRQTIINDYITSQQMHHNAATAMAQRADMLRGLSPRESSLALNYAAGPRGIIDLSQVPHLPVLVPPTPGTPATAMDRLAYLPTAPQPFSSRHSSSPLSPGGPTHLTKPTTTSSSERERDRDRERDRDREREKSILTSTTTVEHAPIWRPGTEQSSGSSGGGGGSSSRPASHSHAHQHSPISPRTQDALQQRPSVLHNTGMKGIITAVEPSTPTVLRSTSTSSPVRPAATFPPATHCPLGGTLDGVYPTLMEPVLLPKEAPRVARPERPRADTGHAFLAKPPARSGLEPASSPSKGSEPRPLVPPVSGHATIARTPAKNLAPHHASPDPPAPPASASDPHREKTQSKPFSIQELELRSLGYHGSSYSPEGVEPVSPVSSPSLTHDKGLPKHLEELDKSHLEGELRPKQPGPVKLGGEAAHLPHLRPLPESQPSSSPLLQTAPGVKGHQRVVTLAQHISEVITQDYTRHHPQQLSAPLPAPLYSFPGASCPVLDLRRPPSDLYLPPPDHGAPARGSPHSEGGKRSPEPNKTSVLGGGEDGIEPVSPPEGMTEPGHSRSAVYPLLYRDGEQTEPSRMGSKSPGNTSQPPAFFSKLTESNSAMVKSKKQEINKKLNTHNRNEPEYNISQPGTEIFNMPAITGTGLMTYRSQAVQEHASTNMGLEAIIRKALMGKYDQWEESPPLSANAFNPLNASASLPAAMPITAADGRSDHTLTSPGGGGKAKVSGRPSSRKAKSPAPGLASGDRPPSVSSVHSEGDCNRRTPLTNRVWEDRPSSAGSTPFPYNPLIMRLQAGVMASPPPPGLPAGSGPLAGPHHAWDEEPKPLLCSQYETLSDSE
Chain of Histone deacetylase 4 (P56524 whole entry): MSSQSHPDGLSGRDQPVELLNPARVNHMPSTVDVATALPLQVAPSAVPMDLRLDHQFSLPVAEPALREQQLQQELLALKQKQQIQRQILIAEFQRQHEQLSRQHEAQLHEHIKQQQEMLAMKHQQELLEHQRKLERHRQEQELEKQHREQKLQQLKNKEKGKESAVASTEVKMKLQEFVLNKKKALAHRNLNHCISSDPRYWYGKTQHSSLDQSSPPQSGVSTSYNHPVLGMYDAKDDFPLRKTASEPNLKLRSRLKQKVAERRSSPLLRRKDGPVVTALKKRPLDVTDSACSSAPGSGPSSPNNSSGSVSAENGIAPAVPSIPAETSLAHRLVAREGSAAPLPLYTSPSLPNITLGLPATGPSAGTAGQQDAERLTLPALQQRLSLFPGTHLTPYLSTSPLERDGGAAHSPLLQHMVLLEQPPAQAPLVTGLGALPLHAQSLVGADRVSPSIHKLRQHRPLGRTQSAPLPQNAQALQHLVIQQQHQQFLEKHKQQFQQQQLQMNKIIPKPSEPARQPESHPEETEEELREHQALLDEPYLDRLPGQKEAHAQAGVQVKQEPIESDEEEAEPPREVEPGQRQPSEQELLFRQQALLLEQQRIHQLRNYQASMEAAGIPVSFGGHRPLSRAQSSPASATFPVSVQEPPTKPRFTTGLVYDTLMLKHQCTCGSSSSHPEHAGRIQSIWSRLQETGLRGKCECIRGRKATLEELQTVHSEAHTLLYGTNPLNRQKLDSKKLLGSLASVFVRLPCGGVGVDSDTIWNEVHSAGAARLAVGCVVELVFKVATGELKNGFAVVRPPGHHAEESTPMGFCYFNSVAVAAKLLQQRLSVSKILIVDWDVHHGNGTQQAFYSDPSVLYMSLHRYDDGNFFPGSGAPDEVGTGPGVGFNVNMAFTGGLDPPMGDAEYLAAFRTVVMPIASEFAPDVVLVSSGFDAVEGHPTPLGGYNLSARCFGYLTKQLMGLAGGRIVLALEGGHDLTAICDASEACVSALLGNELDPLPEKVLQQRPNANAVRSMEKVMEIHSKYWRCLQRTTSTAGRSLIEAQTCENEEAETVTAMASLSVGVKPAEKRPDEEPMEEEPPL
Description for Histone deacetylase 7: Inhibition of recombinant human HDAC7 using Boc-L-Lys(epsilon-trifluoroacetyl)-AMC as substrate by two-step fluorogenic assay

For orientation: IC50 means the concentration at which inhibition is half-maximal. As to `CC[C@H](C)[C@H]1NC(=O)[C@H]2CSSCC/C=C/[C@H](CC(=O)N[C@H](CCSC)C(=O)N2)OC(=O)C[C@@H]1O` [THAILANDEPSIN A], the concentration for half-maximal inhibition (IC50) on Histone deacetylase 7 was more than 50 µM; in assay [1] it was 9.9 µM; in assay [2], 39 µM; against Histone deacetylase 9, more than 50 µM; in assay [3], 87 nM; against Histone deacetylase 4, more than 50 µM. Also, the results for the IC50 (in assay [4]; against Histone deacetylase 8) were 7.5 µM and more than 50 µM, respectively.
For the molecule `CCCC[C@H]1NC(=O)C[C@H]2/C=C/CCSSC[C@@H](NC1=O)C(=O)N[C@H]([C@@H](C)CC)[C@@H](O)CC(=O)O2` [THAILANDEPSIN B], the IC50 in assay [1] is 11 µM; in assay [2], 4.5 µM; at Histone deacetylase 9, more than 50 µM; in assay [3], 23 nM; on Histone deacetylase 4 it was 22 µM; in assay [4], 7.7 µM. 30 µM corresponded to half-maximal inhibition on Histone deacetylase 8 (IC50).
In the case of `C/C=C1\NC(=O)[C@H]2CSSCC/C=C/[C@H](CC(=O)N[C@H](C(C)C)C(=O)N2)OC(=O)[C@H](C(C)C)NC1=O` [ROMIDEPSIN], the IC50 at Histone deacetylase 7 was more than 50 µM; on Histone deacetylase 9 it was more than 50 µM; at Histone deacetylase 4, more than 50 µM; in assay [4], 6.7 µM.

The record behind these values is ChEMBL document CHEMBL1833850, “Thailandepsins: bacterial products with potent histone deacetylase inhibitory activities and broad-spectrum antiproliferative activities” (J Nat Prod, 2011).
